Data on 23 compounds can be found in patent US11236055B2 (Venenum Biodesign, LLC, priority 2016, dated 2022).

The pEC50 is the negative decadic logarithm of the EC50, by convention in mol/L.

One experiment addresses T1, mouse TGR5 receptor (Mus musculus, UniProt Q80SS6).
T1 construct: expressed in transfected cells; host or cells: HEK293-EBNA (293 c18, ATCC CRL10852), Hygromycin B selection
T1 sequence (Q80SS6 1-329): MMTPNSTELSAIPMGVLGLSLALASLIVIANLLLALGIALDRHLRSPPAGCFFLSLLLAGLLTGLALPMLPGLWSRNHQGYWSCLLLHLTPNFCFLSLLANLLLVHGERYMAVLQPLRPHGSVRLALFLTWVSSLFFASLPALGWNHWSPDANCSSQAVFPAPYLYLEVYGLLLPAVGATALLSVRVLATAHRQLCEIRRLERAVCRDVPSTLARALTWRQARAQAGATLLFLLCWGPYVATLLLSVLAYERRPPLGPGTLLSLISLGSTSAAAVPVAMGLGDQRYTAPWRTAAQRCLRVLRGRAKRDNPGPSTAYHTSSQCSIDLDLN
The experiment in a line: Mouse TGR5 cAMP production assay (HTRF, Cisbio cAMP HiRange). It is filed as cell-based. The note with it: HEK293-EBNA cells overexpressing mouse TGR5, HTRF cAMP HiRange; coded A-D. A digest of the protocol: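 cAMP read by HTRF competition after 1 h room-temperature compound exposure of mouse TGR5-overexpressing HEK293-EBNA cells. Cells were suspended in serum-free DMEM containing 500 μM IBMX; compounds ran as 12-point half-log dilutions in duplicate; EC50 derived.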

Another experiment addresses T2, human TGR5 receptor (Homo sapiens, UniProt Q8TDU6).
T2 construct: host or cells: CHO-K1 (hTGR5-CHO cells)
T2 sequence (Q8TDU6 1-330): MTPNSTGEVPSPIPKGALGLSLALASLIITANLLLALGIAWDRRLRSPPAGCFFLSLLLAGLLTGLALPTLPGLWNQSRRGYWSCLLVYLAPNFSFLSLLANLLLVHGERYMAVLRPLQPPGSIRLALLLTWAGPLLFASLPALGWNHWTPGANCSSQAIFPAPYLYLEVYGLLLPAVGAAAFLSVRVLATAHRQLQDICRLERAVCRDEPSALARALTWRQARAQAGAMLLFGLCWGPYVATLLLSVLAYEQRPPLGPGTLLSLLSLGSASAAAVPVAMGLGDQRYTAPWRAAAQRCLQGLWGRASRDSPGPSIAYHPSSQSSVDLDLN
The experiment in a line: Human TGR5 cAMP production assay. It is filed as cell-based. The note with it: human TGR5, luminescent cAMP assay; coded A-D; read-out: Human TGR5 Lum. cAMP Activity (EC50). An outline of the steps: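 CHO-K1 cells stably expressing human TGR5, with IBMX and cAMP antibody, were exposed to half-log serially diluted compound for 1 h at room temperature. cAMP measured by enzyme-fragment complementation luminescence (XS+ kit) after overnight incubation; EC50 values reported.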

Structures are written as SMILES. pEC50: −log10 of the molar value.

With `Cc1c(Cl)cccc1S(=O)(=O)N1CCN(C(=O)CS(=O)(=O)O)CC1c1cccc(-c2ccncc2Cl)c1` (stereo not shown) [Compound 49AE, 2-(4-((3-chloro-2-methylphenyl)sulfonyl)-3-(3-(3-chloropyridin-4-yl)phenyl)piperazin-1-yl)-2-oxoethanesulfonic acid], the negative logarithm of the EC50 (pEC50) on mouse TGR5 receptor is over 7.00; at human TGR5 receptor, 6.00 to 7.00.

Take `COC(=O)C(NS(=O)(=O)c1cccc(C(F)(F)F)c1)c1cccc(-c2ccncc2OC)c1` (stereo not shown) [Compound 1CE]: the negative-log EC50 (pEC50) on mouse TGR5 receptor and at human TGR5 receptor was 4.52 to 6.00 in each case.

Turning to `Cc1cnccc1-c1cccc([C@@H](C)N(CCCC(=O)O)S(=O)(=O)c2cccc(Cl)c2C)c1` [Compound 16AA, (R)-4-(3-chloro-2-methyl-N-(1-(3-(3-methylpyridin-4-yl)-phenyl)ethyl)phenylsulfonamido)butanoic acid], the figures for the pEC50 at mouse TGR5 receptor and at human TGR5 receptor were 4.52 to 6.00 and 6.00 to 7.00, respectively.

Turning to `CC(C)(NS(=O)(=O)c1cccc(C(F)(F)F)c1)c1cccc(-c2ccncc2CO)c1` [Compound 5AE, N-(2-(3-(3-(hydroxymethyl)-pyridin-4-yl)phenyl)propan-2-yl)-3-(trifluoromethyl)benzenesulfonamide], the pEC50 was 4.52 to 6.00 at mouse TGR5 receptor and over 7.00 on human TGR5 receptor.

Consider `Cc1cnccc1-c1cccc(C(C)N(CCNc2c(NCS(=O)(=O)O)c(=O)c2=O)S(=O)(=O)c2cccc(Cl)c2C)c1` (stereo not shown) [Compound 32, 2-((2-((2-(3-chloro-2-methyl-N-(1-(3-(3-methylpyridin-4-yl)phenyl)ethyl)phenylsulfonamido)ethyl)amino)-3,4-dioxocyclobut-1-en-1-yl)amino)methanesulfonic acid], for which the negative-log EC50 (pEC50) on mouse TGR5 receptor and on human TGR5 receptor was 4.52 to 6.00 throughout.

For `CC(C)(NS(=O)(=O)c1cccc(C(F)(F)F)c1)c1cccc(-c2ccncc2N)c1` [Compound 1AM], the pEC50 at mouse TGR5 receptor was 6.00 to 7.00; at human TGR5 receptor, over 7.00.

In the case of `Cc1c(Cl)cccc1S(=O)(=O)N(CCCC(=O)O)[C@@H](C)c1cccc(-c2ccncc2)c1` [Compound 14AD, (S)-4-(3-chloro-2-methyl-N-(1-(3-(pyridin-4-yl)phenyl)ethyl)phenylsulfonamido)butanoic acid], the negative-log EC50 (pEC50) at mouse TGR5 receptor and at human TGR5 receptor was 6.00 to 7.00 throughout.

As to `Cc1cnccc1-c1cccc([C@H](C)N(CCCC(=O)NCCN)S(=O)(=O)c2ccccc2C(F)(F)F)c1` [Compound 20BX], the negative-log EC50 (pEC50) on mouse TGR5 receptor is 6.00 to 7.00; on human TGR5 receptor, over 7.00.

As for `Cc1cnccc1-c1cccc(C2CN(C(=O)CS(=O)(=O)O)CCN2S(=O)(=O)c2cccc(Cl)c2Cl)c1` (stereo not shown) [Compound 49AC, 2-(4-((2,3-dichlorophenyl)sulfonyl)-3-(3-(3-methylpyridin-4-yl)phenyl)piperazin-1-yl)-2-oxoethanesulfonic acid], the pEC50 on mouse TGR5 receptor and at human TGR5 receptor was over 7.00 throughout.

For `Cc1nccc(-c2cccc(C(C)(C)NS(=O)(=O)c3cccc(C(F)(F)F)c3)c2)c1C` [Compound 5AC, N-(2-(3-(2,3-dimethylpyridin-4-yl)phenyl)propan-2-yl)-3-(trifluoromethyl)-benzenesulfonamide], the negative-log EC50 (pEC50) at mouse TGR5 receptor and at human TGR5 receptor was 4.52 to 6.00 throughout.

For `Cc1cnccc1-c1cccc(C(C)(C)NS(=O)(=O)c2ccccc2[N+](=O)[O-])c1` [Compound 5AP, N-(2-(3-(3-methylpyridin-4-yl)phenyl)propan-2-yl)-2-nitrobenzenesulfonamide], the negative logarithm of the EC50 (pEC50) was 6.00 to 7.00 on mouse TGR5 receptor and over 7.00 at human TGR5 receptor.

For `Cc1cnccc1-c1cccc(C(C)(C)NS(=O)(=O)c2cc(Br)ccc2C)c1` [Compound 2BW], the pEC50 on mouse TGR5 receptor is 6.00 to 7.00; at human TGR5 receptor, over 7.00.

Consider `COC(=O)c1cnccc1-c1cccc(C(C)(C)NS(=O)(=O)c2ccccc2C(F)(F)F)c1` [Compound 6, Methyl 4-(3-(2-(2-(trifluoromethyl)phenylsulfonamido)propan-2-yl)phenyl)nicotinate], for which the pEC50 was 4.52 to 6.00 at mouse TGR5 receptor and over 7.00 at human TGR5 receptor.

Regarding `CN(C)C(=O)c1cnccc1-c1cccc(C(C)(C)NS(=O)(=O)c2ccccc2C(F)(F)F)c1` [Compound 11, N,N-dimethyl-4-(3-(2-(2-(trifluoromethyl)phenylsulfonamido)propan-2-yl)phenyl)nicotinamide], the pEC50 on mouse TGR5 receptor and at human TGR5 receptor was 4.52 to 6.00 each time.

In the case of `Cc1cnccc1-c1cccc(C(CCCCNC(=O)NCCS(=O)(=O)O)NS(=O)(=O)c2ccccc2C(F)(F)F)c1` (stereo not shown) [Compound 28AG, 2-(3-(5-(3-(3-methylpyridin-4-yl)phenyl)-5-(2-(trifluoromethyl)phenylsulfonamido)pentyl)ureido)ethanesulfonic acid], the pEC50 at mouse TGR5 receptor and on human TGR5 receptor was 6.00 to 7.00 each time.

Turning to `Cc1cnccc1-c1cccc(C(C)(C)NS(=O)(=O)c2cccc(Cl)c2C)c1` [Compound 2BU], the pEC50 at mouse TGR5 receptor and at human TGR5 receptor was over 7.00 in each case.

Take `Cc1cnsc1-c1cccc([C@H](C)N(CCCC(=O)NCCS(=O)(=O)O)S(=O)(=O)c2cccc(Cl)c2C)c1` [Compound 20BP, (S)-2-(4-(3-chloro-2-methyl-N-(1-(3-(4-methylisothiazol-5-yl)phenyl)ethyl)phenylsulfonamido)butanamido)ethanesulfonic acid]: the pEC50 is 4.52 to 6.00 on mouse TGR5 receptor and 6.00 to 7.00 on human TGR5 receptor.

`Cc1c(Cl)cccc1S(=O)(=O)N[C@@H](C)c1cccc(-n2ccncc2=O)c1` [Compound 12, (S)-3-chloro-2-methyl-N-(1-(3-(2-oxopyrazin-1(2H)-yl)phenyl)ethyl)benzenesulfonamide]: the pEC50 is 4.52 to 6.00 at mouse TGR5 receptor and 6.00 to 7.00 on human TGR5 receptor.

For `Cc1cnccc1-c1cccc(C2CN(C(=O)CCC(=O)O)CCN2S(=O)(=O)c2cccc(Cl)c2C)c1` (stereo not shown) [Compound 46AD, 4-(4-((3-chloro-2-methylphenyl)sulfonyl)-3-(3-(3-methylpyridin-4-yl)phenyl)piperazin-1-yl)-4-oxobutanoic acid], the pEC50 is over 7.00 on mouse TGR5 receptor and 6.00 to 7.00 on human TGR5 receptor.

For `Cc1cnccc1-c1cccc([C@H](C)N(CCCCC(=O)NCCOCCNC(=O)CS(=O)(=O)O)S(=O)(=O)c2cccc(Cl)c2C)c1` [Compound 31, (S)-15-((3-chloro-2-methylphenyl)sulfonyl)-16-(3-(3-methylpyridin-4-yl)phenyl)-2,10-dioxo-6-oxa-3,9,15-triazaheptadecane-1-sulfonic acid], the negative-log EC50 (pEC50) at mouse TGR5 receptor and on human TGR5 receptor was over 7.00 in each case.

For `CCc1cnccc1-c1cc(O)cc(C(C)(C)NS(=O)(=O)c2ccccc2C(F)(F)F)c1` [Compound 22, N-(2-(3-(3-Ethylpyridin-4-yl)-5-hydroxyphenyl)propan-2-yl)-2-(trifluoromethyl)benzenesulfonamide], the pEC50 on mouse TGR5 receptor and at human TGR5 receptor was over 7.00 each time.

Consider `Cc1cnccc1-c1cccc([C@H](CCCC#N)NS(=O)(=O)c2cccc(Cl)c2C)c1` [Compound 2BZ], for which the pEC50 at mouse TGR5 receptor and on human TGR5 receptor was over 7.00 each time.

For the compound `Cc1cnsc1-c1cccc([C@H](C)N(CCCC(=O)O)S(=O)(=O)c2cccc(Cl)c2C)c1` [Compound 16AJ, (S)-4-(3-chloro-2-methyl-N-(1-(3-(4-methylisothiazol-5-yl)phenyl)ethyl)phenyl-sulfonamido)butanoic acid], the pEC50 at mouse TGR5 receptor and on human TGR5 receptor was 4.52 to 6.00 in each case.
